Consider 2 compounds from PMC7910296, “Phosphorescent Ir(III) complexes conjugated with oligoarginine peptides serve as optical probes for in vivo microvascular imaging” (Scientific Reports, 2021).

One series concerns vascular endothelium. As to the kind of experiment: In vivo luminescence intensity and lifetime imaging after intravenous administration.
Series [1] is described as follows: Absorption and emission spectra. The conditions noted are these: MeCN with 1% DMSO, room temperature. Format: physicochemical. The procedure: Absorption and emission spectra were recorded on a UV–Vis spectrophotometer (Ubest V-550, JASCO) and a photonic multichannel analyzer PMA-12 (C11027-01, Hamamatsu Photonics) equipped with a monochromatized Xe arc lamp, respectively. The emission spectra were fully corrected for spectral sensitivity.

Series [2] in a line: Water solubility / aggregate formation in aqueous solution. Format: physicochemical. The text has this:
Ir(III) complexes BTQ-Rn (n = 4, 8, 12, 16) with different lengths of arginine peptides in the ligand (Fig. 1) were obtained by chemical synthesis, including solid-phase synthesis of the peptides. The synthetic details and characterization of BTQ-Rn are described in Supplementary Information. We first examined the spectral and photophysical properties of the synthesized BTQ-Rn (n = 4, 8, 12, 16) in MeCN and Tris–HCl buffer (pH 7.0) and compared them to the parent complex BTQphen. Figure 2A,B show the absorption and emission spectra of BTQphen and BTQ-R12 (a representative BTQ-Rn) in MeCN. […] The first absorption band of BTQ-R12, which has a molar absorption coefficient of 7600 mol^−1 dm^3 cm^−1 at 496 nm, can be assigned to the singlet metal-to-ligand charge transfer (^1MLCT) transition. Emissions appear in the red to near-infrared region, with the maximum at around 660 nm, and show a very large Stokes shift. The emission decay profiles follow single-exponential functions, with lifetimes of 5.7 μs for BTQphen and 5.9 μs for BTQ-R12 in deaerated MeCN, and 0.28 μs for BTQphen and BTQ-R12 in aerated MeCN (Table 1). The extremely long lifetimes in deaerated solution and significant quenching by dissolved oxygen indicate that emission is due to phosphorescence. […]

Series [3] in a line: Phosphorescence quantum yield (absolute photoluminescence quantum yield system). Format: physicochemical. The conditions noted are these: room temperature. On the procedure:
(§1) Phosphorescence lifetimes were measured with a time-correlated single-photon counting fluorimeter (Quantaurus-Tau C11367G, Hamamatsu Photonics). A laser diode (M12488-35, Hamamatsu Photonics; 481 nm, pulse width 70 ps) was used as the excitation light source. The temperature of the sample solution was controlled by circulating water through a jacket cuvette holder from a temperature controlled bath (RTE7, Neslab). Phosphorescence quantum yields were determined on an absolute photoluminescence quantum yield measurement system (C9920-02, Hamamatsu Photonics) consisting of a Xe arc lamp, a monochromator, an integrating sphere, and a multichannel detector[41].

A short description of series [4]: Phosphorescence lifetime in solution (time-correlated single-photon counting). Format: physicochemical. The conditions noted are these: 37 °C. The procedure:
as §1

For the compound `CCN(CC)c1ccc2cc3cc(-c4nc5ccccc5s4)c(=O)oc3cc2c1` [PC6S, reference compound], the localization in liver result in the series on vascular endothelium (living mice, PC6S 50 nmol iv, fluorescence intensity images of liver) was “taken up into hepatocytes and likely accumulates in LDs and the ER”.
Turning to (btq)2Ir(phen-pipe) [BTQphen], the “localization in renal cortex” value in the series on vascular endothelium (mouse kidney, about 1 h after intravenous administration (100 nmol; FITC-lectin 1 mg/mL, 50 μL), luminescence intensity images) is “localized in tubular cells rather than in capillaries”. Also, the emission maximum result in series [1] is “around 660 nm”. In addition, the aggregate formation result in series [2] (aqueous solution / Tris–HCl buffer (pH 7.0), from spectra and single-exponential decay) is given as “forms aggregates”. In addition, in series [2] (aqueous solution, in words), the water solubility entry is “extremely low water solubility”. For the same compound, the “Φp, phosphorescence quantum yield” value in series [3] (aerated MeCN) is given as 0.015. For the same compound, in series [3] (deaerated MeCN), the “Φp0, phosphorescence quantum yield” value is on record as 0.32. In series [4] (aerated MeCN), the “τp, phosphorescence lifetime” value amounted to 0.28 µs. In series [4] (deaerated MeCN), the “τp0, phosphorescence lifetime” value stood at 5.7 µs.
